# Patent US20250186321A1, “FORMULATION USING AMINO ACID AND CARBOXYLIC ACID, ORGANIC SALT, AND COMPOSITION COMPRISING SAME AND USE THEREOF” (MIYOSHI OIL & FAT CO., LTD., priority 2021, published 2025)
# Test: Appearance of formulation (state at 25° C.)
# Assay type: physicochemical
# Method: Formulations 1 to 427 shown in Tables 1A to 1D were prepared by the above-described method using the components (A) and (B) at the compounding molar ratios shown in the tables, and their states at 25° C. were observed.
# [1] = 25° C., components (A) and (B) at the compounding molar ratio shown
# [2] = Tables 1C-1 to 1D, compounding molar ratio (Component (A):Component (B)) 1:1
SMILES,state at 25° C. [1],state at 25° C. [2],further results
C[C@H](N)C(=O)O.O=C(O)CCC(=O)O [Formulation 158],Solid,–,–
NCCCC[C@H](N)C(=O)O.O=C1O[C@H]([C@@H](O)CO)C(O)=C1O [Formulation 20],Solid,–,–
CC(=O)O.NCC(=O)O [Formulation 128],Solid,–,–
N[C@@H](Cc1c[nH]cn1)C(=O)O.O=C(O)C[C@H](O)C(=O)O.O=C(O)C[C@H](O)C(=O)O [Formulation 120],Solid,–,–
N[C@@H](Cc1c[nH]cn1)C(=O)O.O=C(O)C=Cc1ccccc1 [Formulation 103],Solid,–,–
N[C@@H](CS)C(=O)O.O=C1O[C@H]([C@@H](O)CO)C(O)=C1O [Formulation 321],–,Solid,–
CC(C)[C@H](N)C(=O)O.O=C(O)CCCCC(=O)O [Formulation 194],Solid,–,–
C[C@@H](O)[C@H](N)C(=O)O.O=C(O)c1ccccc1 [Formulation 269],Solid,–,–
CC(=O)O.C[C@@H](O)[C@H](N)C(=O)O [Formulation 256],Solid,–,–
N[C@@H](CC(=O)O)C(=O)O.O=C(O)C(O)C(O)C(=O)O (stereo not drawn) [Formulation 407],–,Solid,–
C[C@@H](O)[C@H](N)C(=O)O.N[C@@H](CCC(=O)O)C(=O)O [Formulation 264],Solid,–,–
NCCCC[C@H](N)C(=O)O.O=C(O)/C=C/C(=O)O.O=C(O)/C=C/C(=O)O [Formulation 35],Solid,–,–
N[C@@H](Cc1ccccc1)C(=O)O.O=C(O)CC(O)(CC(=O)O)C(=O)O [Formulation 372],–,Solid,–
N[C@@H](CO)C(=O)O.O=CO [Formulation 238],Solid,–,–
CSCC[C@H](N)C(=O)O.O=C(O)/C=C/C(=O)O [Formulation 333],–,Solid,–
NCCCC[C@H](N)C(=O)O.N[C@@H](CCC(=O)O)C(=O)O [Formulation 13],Solid,–,–
CCCCCC(=O)O.CCCCCC(=O)O.N=C(N)NCCC[C@H](N)C(=O)O [Formulation 67],Solid,–,–
C[C@H](N)C(=O)O.N[C@@H](CCC(=O)O)C(=O)O [Formulation 159],Solid,–,–
N[C@@H](Cc1c[nH]cn1)C(=O)O.O=C(O)c1ccccc1 [Formulation 102],Solid,–,–
CC(=O)O.CC(=O)O.N=C(N)NCCC[C@H](N)C(=O)O [Formulation 65],Solid,–,–
N[C@@H](CS)C(=O)O.O=C(O)/C=C/C(=O)O [Formulation 316],–,Solid,–
CSCC[C@H](N)C(=O)O.O=CO [Formulation 323],–,Solid,–
C[C@H](N)C(=O)O.O=C(O)/C=C/C(=O)O [Formulation 160],Solid,–,–
NCCCC(=O)O.O=C(O)/C=C/C(=O)O [Formulation 180],Solid,–,–
N[C@@H](CS)C(=O)O.O=C(O)[C@H](O)[C@@H](O)[C@H](O)[C@H](O)CO [Formulation 311],–,Solid,–
NCCCC(=O)O.O=CO [Formulation 167],Solid,–,–

SMILES,state at 25° C. [1],state at 25° C. [2],further results
CC(C)C[C@H](N)C(=O)O.O=C(O)CCCCC(=O)O [Formulation 211],Solid,–,–
CC(=O)O.N[C@@H](CS)C(=O)O [Formulation 307],–,Solid,–
CSCC[C@H](N)C(=O)O.O=C(O)CC(O)(CC(=O)O)C(=O)O [Formulation 335],–,Solid,–
CC(O)C(=O)O.N[C@@H](CO)C(=O)O [Formulation 244],Solid,–,–
CCCC(=O)O.NCCCC[C@H](N)C(=O)O [Formulation 5],Solid,–,–
CCC(=O)O.C[C@H](N)C(=O)O [Formulation 149],Solid,–,–
N[C@@H](Cc1c[nH]c2ccccc12)C(=O)O.O=C(O)CC(O)(CC(=O)O)C(=O)O [Formulation 389],–,Solid,–
CCCC(=O)O.CCCC(=O)O.N[C@@H](Cc1cnc[nH]1)C(=O)O [Formulation 110],Solid,–,–
CCCCCC(=O)O.N=C(N)NCCC[C@H](N)C(=O)O [Formulation 46],Solid,–,–
N[C@@H](CC(=O)O)C(=O)O.O=C(O)[C@H](O)[C@@H](O)[C@H](O)[C@H](O)CO [Formulation 399],–,Solid,–
CCCC(=O)O.CCCC(=O)O.NCCCC[C@H](N)C(=O)O [Formulation 26],Solid,–,–
C[C@@H](O)[C@H](N)C(=O)O.O=C(O)C(O)C(O)C(=O)O (stereo not drawn) [Formulation 268],Solid,–,–
NCC(=O)O.O=C(O)C(O)C(O)C(=O)O (stereo not drawn) [Formulation 143],Solid,–,–
CC(C)C[C@H](N)C(=O)O.O=C(O)CC(O)(CC(=O)O)C(=O)O [Formulation 216],Solid,–,–
CCCC(=O)O.N[C@@H](CC(=O)O)C(=O)O [Formulation 398],–,Solid,–
CC(C)C[C@H](N)C(=O)O.CCCCCC(=O)O [Formulation 207],Solid,–,–
N=C(N)NCCC[C@H](N)C(=O)O.O=C(O)CCC(=O)O [Formulation 54],Solid,–,–
CC[C@H](C)[C@H](N)C(=O)O.O=C(O)CCC(=O)O [Formulation 229],Solid,–,–
CCCCCC(=O)O.N[C@@H](CCC(=O)O)C(=O)O [Formulation 414],–,Solid,–
C[C@@H](O)[C@H](N)C(=O)O.O=C(O)/C=C/C(=O)O [Formulation 265],Solid,–,–
CSCC[C@H](N)C(=O)O.O=C(O)C(O)C(O)C(=O)O (stereo not drawn) [Formulation 336],–,Solid,–
C[C@H](N)C(=O)O.O=CO [Formulation 147],Solid,–,–
CC[C@H](C)[C@H](N)C(=O)O.O=C(O)C(O)C(O)C(=O)O (stereo not drawn) [Formulation 234],Solid,–,–
CC[C@H](C)[C@H](N)C(=O)O.O=C(O)/C=C/C(=O)O [Formulation 231],Solid,–,–
CCCCC/C=C\C/C=C\CCCCCCCC(=O)O.N[C@@H](Cc1c[nH]cn1)C(=O)O [Formulation 92],Solid,–,–
CCCC(=O)O.O=C(O)[C@@H]1CCCN1 [Formulation 344],–,Solid,–

SMILES,state at 25° C. [1],state at 25° C. [2],further results
CCCC(=O)O.N=C(N)NCCC[C@H](N)C(=O)O [Formulation 47],Solid,–,–
NCCCC[C@H](N)C(=O)O.O=C(O)c1ccccc1.O=C(O)c1ccccc1 [Formulation 39],Solid,–,–
N[C@@H](Cc1c[nH]c2ccccc12)C(=O)O.O=C1O[C@H]([C@@H](O)CO)C(O)=C1O [Formulation 392],–,Solid,–
CSCC[C@H](N)C(=O)O.O=C(O)[C@H](O)[C@@H](O)[C@H](O)[C@H](O)CO [Formulation 328],–,Solid,–
C[C@@H](O)[C@H](N)C(=O)O.O=C(O)[C@H](O)[C@@H](O)[C@H](O)[C@H](O)CO [Formulation 260],Solid,–,–
CC(O)C(=O)O.N[C@@H](CCC(=O)O)C(=O)O [Formulation 417],–,Solid,–
N[C@@H](CO)C(=O)O.O=C(O)C(O)C(O)C(=O)O (stereo not drawn) [Formulation 251],Solid,–,–
CC(C)C[C@H](N)C(=O)O.O=C(O)/C=C/C(=O)O [Formulation 214],Solid,–,–
N[C@@H](CC(=O)O)C(=O)O.O=C1O[C@H]([C@H](O)CO)C(O)=C1O [Formulation 410],–,Solid,–
C[C@@H](O)[C@H](N)C(=O)O.O=C1O[C@H]([C@H](O)CO)C(O)=C1O [Formulation 271],Solid,–,–
N[C@@H](Cc1ccccc1)C(=O)O.O=C1O[C@H]([C@H](O)CO)C(O)=C1O [Formulation 375],–,Solid,–
CC[C@H](C)[C@H](N)C(=O)O.O=C(O)CCCCC(=O)O [Formulation 228],Solid,–,–
CCCCCCCC/C=C\CCCCCCCC(=O)O.CCCCCCCC/C=C\CCCCCCCC(=O)O.NCCCC[C@H](N)C(=O)O [Formulation 28],Solid,–,–
CC(=O)O.CC(C)[C@H](N)C(=O)O [Formulation 188],Solid,–,–
N[C@@H](Cc1ccccc1)C(=O)O.O=CO [Formulation 360],–,Solid,–
NC(CCC(=O)O)C(=O)O.O=C(O)CC(O)C(=O)O (stereo not drawn) [Formulation 422],–,Solid,–
Cl.O=C(O)[C@@H]1CCCN1 [Formulation 437],–,–,state at 25° C. (25° C.): Solid
N[C@@H](Cc1ccccc1)C(=O)O.O=C(O)CCC(=O)O [Formulation 368],–,Solid,–
N[C@@H](CCC(=O)O)C(=O)O.O=C(O)/C=C/C(=O)O [Formulation 421],–,Solid,–
N[C@@H](Cc1ccccc1)C(=O)O.O=C(O)/C=C/C(=O)O [Formulation 370],–,Solid,–
N[C@@H](CC(=O)O)C(=O)O.O=C1O[C@H]([C@@H](O)CO)C(O)=C1O [Formulation 409],–,Solid,–
N=C(N)NCCC[C@H](N)C(=O)O.N[C@@H](CCC(=O)O)C(=O)O [Formulation 55],Solid,–,–
CCCC(=O)O.N[C@@H](Cc1c[nH]cn1)C(=O)O [Formulation 89],Solid,–,–
CC(O)C(=O)O.N[C@@H](Cc1c[nH]c2ccccc12)C(=O)O [Formulation 383],–,Solid,–
N[C@@H](CO)C(=O)O.O=C(O)CCC(=O)O [Formulation 246],Solid,–,–
N[C@@H](Cc1ccccc1)C(=O)O.O=C(O)C[C@H](O)C(=O)O [Formulation 371],–,Salid,–
